“And” between values parts separate entries of the source, which are not always exact repeats. Equal entries are not always repeated. Inconclusive results and toxic doses are left out. Rule as the data show it: active = T/C of 150% or more; inactive = T/C below 125%.
Tested on: L1210 leukemia ip in BDF1 mice, survival T/C
Test: NCI In Vivo Anticancer Drug Screen. Data for tumor model L1210 Leukemia (intraperitoneal) in B6D2F1 (BDF1) mice
Details: endpoint: mean survival time, higher = longer survival
In short: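 Ratio derived from survival: compound-dosed mice over vehicle-dosed mice, all bearing a transplantable tumor.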

[1] = dose: 50.0 mg/kg/injection, schedule: Q01DX009 (ip), vehicle: Klucel (hydroxypropylcellulose) (HPC)
[2] = dose: 100.0 mg/kg/injection, schedule: Q01DX009 (ip), vehicle: Klucel (hydroxypropylcellulose) (HPC)
[3] = dose: 200.0 mg/kg/injection, schedule: Q01DX009 (ip), vehicle: Klucel (hydroxypropylcellulose) (HPC)
[4] = dose: 100.0 mg/kg/injection, schedule: Q01DX009 (ip), vehicle: saline with Tween-80
[5] = dose: 100.0 mg/kg/injection, schedule: Q04DX003 (ip), vehicle: saline with Tween-80
[6] = dose: 200.0 mg/kg/injection, schedule: Q01DX009 (ip), vehicle: saline with Tween-80
[7] = dose: 200.0 mg/kg/injection, schedule: Q04DX003 (ip), vehicle: saline with Tween-80
[8] = dose: 400.0 mg/kg/injection, schedule: Q01DX009 (ip), vehicle: saline with Tween-80
[9] = dose: 400.0 mg/kg/injection, schedule: Q04DX003 (ip), vehicle: saline with Tween-80
[10] = dose: 50.0 mg/kg/injection, schedule: Q01DX009 (ip), vehicle: saline with Tween-80
[11] = dose: 50.0 mg/kg/injection, schedule: Q04DX003 (ip), vehicle: saline with Tween-80
[12] = dose: 100.0 mg/kg/injection, schedule: Q01DX001 (ip), vehicle: saline
[13] = dose: 200.0 mg/kg/injection, schedule: Q01DX001 (ip), vehicle: saline
[14] = dose: 400.0 mg/kg/injection, schedule: Q01DX001 (ip), vehicle: saline
[15] = dose: 100.0 mg/kg/injection, schedule: Q04DX002 (ip), vehicle: saline with Tween-80
[16] = dose: 200.0 mg/kg/injection, schedule: Q04DX002 (ip), vehicle: saline with Tween-80
[17] = dose: 100.0 mg/kg/injection, schedule: Q04DX003 (ip), vehicle: Klucel (hydroxypropylcellulose) (HPC)
[18] = dose: 200.0 mg/kg/injection, schedule: Q04DX003 (ip), vehicle: Klucel (hydroxypropylcellulose) (HPC)
[19] = dose: 100.0 mg/kg/injection, schedule: Q04DX003 (ip), vehicle: saline

Measured: T/C

O=C(Nc1c[nH]c(=O)[nH]c1=O)C(Cl)Cl
inactive: dose: 16.0 mg/kg/injection, schedule: Q01DX Z (ip), vehicle: methylcellulose (MC) 91 % of control | dose: 31.0 mg/kg/injection, schedule: Q01DX Z (ip), vehicle: methylcellulose (MC) 95 % of control | [1] 103 % of control | dose: 62.0 mg/kg/injection, schedule: Q01DX Z (ip), vehicle: methylcellulose (MC) 93 % of control | [2] 104 % of control | dose: 125.0 mg/kg/injection, schedule: Q01DX Z (ip), vehicle: methylcellulose (MC) 90 % of control | [3] 117 % of control

O=C(O)c1ccccc1C(=O)NC(Cc1cnc[nH]1)C(=O)O (centres undefined)
inactive: [4] 96 % of control | [5] 102 % of control | [6] 100 % of control | [7] 102 % of control | [8] 94 % of control | [9] 91 % of control

O=C(OC1COC(O)C(OC(=O)c2ccccc2)C1OC(=O)c1ccccc1)c1ccccc1 (centres undefined)
inactive: dose: 100.0 mg/kg/injection, schedule: Q01DX001 (ip), vehicle: saline with Tween-80 101 % of control | dose: 200.0 mg/kg/injection, schedule: Q01DX001 (ip), vehicle: saline with Tween-80 93 % of control

CCOC(=O)CCCN(c1sc(C)c(-c2ccccc2)c1C(=O)OCC)S(=O)(=O)c1ccc(C)cc1
inactive: dose: 25.0 mg/kg/injection, schedule: Q01DX009 (ip), vehicle: saline with Tween-80 93 % of control | [10] 93 % of control | [11] 98 % of control | [5] 104 % of control | [6] 90 % of control | [7] 97 % of control | [8] 90 % of control | [9] 87 % of control

O=C(O)CN1C(=O)CNC12CCCC2
inactive: [12] 100 % of control | [13] 108 % of control | [14] 93 % of control

c1ccc2c(c1)ccc1ccccc12
inactive: [5] 100 % of control | [7] 92 % of control | [9] 92 % of control

C(/C=C/C=C/N1CCCCC1)=[N+]1CCCCC1
inactive: dose: 0.39 mg/kg/injection, schedule: Q04DX003 (ip), vehicle: saline 112 % of control | dose: 0.78 mg/kg/injection, schedule: Q04DX003 (ip), vehicle: saline 93 % of control | dose: 1.56 mg/kg/injection, schedule: Q04DX003 (ip), vehicle: saline 105 % of control

Fc1c(F)c(-c2c(F)c(F)c(S)c(F)c2F)c(F)c(F)c1S
inactive: [15] 88 % of control | [16] 98 % of control

FC(F)(F)c1nc2cccc3c2n1CCC3
inactive: [10] 93 % of control | [4] 87 % of control | [5] 97 % of control | [6] 101 % of control | [7] 96 % of control

O=C(Cl)/C=C/c1c(Cl)cccc1Cl
inactive: dose: 75.0 mg/kg/injection, schedule: Q01DX009 (ip), vehicle: Klucel (hydroxypropylcellulose) (HPC) 102 % of control | [17] 103 % of control | dose: 150.0 mg/kg/injection, schedule: Q01DX009 (ip), vehicle: Klucel (hydroxypropylcellulose) (HPC) 100 % of control | [18] 92 % of control | dose: 300.0 mg/kg/injection, schedule: Q01DX009 (ip), vehicle: Klucel (hydroxypropylcellulose) (HPC) 93 % of control

C[N+](C)(CCOC(=O)C1C2CC3OC(=O)C1C3C2)Cc1ccccc1 (centres undefined)
inactive: [19] 101 % of control

CC(Cc1ccccc1)NC(C#N)c1ccccc1 (centres undefined)
inactive: dose: 12.5 mg/kg/injection, schedule: Q01DX009 (ip), vehicle: Klucel (hydroxypropylcellulose) (HPC) 107 % of control | dose: 25.0 mg/kg/injection, schedule: Q01DX009 (ip), vehicle: Klucel (hydroxypropylcellulose) (HPC) 88 % of control | dose: 25.0 mg/kg/injection, schedule: Q04DX003 (ip), vehicle: Klucel (hydroxypropylcellulose) (HPC) 98 % of control | dose: 25.0 mg/kg/injection, schedule: Q04DX003 (ip), vehicle: saline with Tween-80 97 % of control | [1] 91 % of control | dose: 50.0 mg/kg/injection, schedule: Q04DX003 (ip), vehicle: Klucel (hydroxypropylcellulose) (HPC) 109 % of control | [11] 100 % of control | [2] 96 % of control | [17] 109 % of control | [5] 92 % of control | [18] 101 % of control

O=C(NC(c1ccccc1)C(Cl)(Cl)Cl)c1ccccc1 (centres undefined)
inactive: [1] 97 % of control | [2] 97 % of control | [3] 97 % of control

C=C(C/C(=C/S(C)=O)c1ccccc1)c1ccccc1 (centres undefined)
inactive: dose: 75.0 mg/kg/injection, schedule: Q01DX001 (ip), vehicle: saline 97 % of control | dose: 150.0 mg/kg/injection, schedule: Q01DX001 (ip), vehicle: saline 96 % of control | dose: 300.0 mg/kg/injection, schedule: Q01DX001 (ip), vehicle: saline 91 % of control

CCOC(=O)c1cn(C2OC(COC(=O)c3ccccc3)C(OC(=O)c3ccccc3)C2OC(=O)c2ccccc2)c(=O)nc1Nc1ccccc1Br (centres undefined)
inactive: dose: 100.0 mg/kg/injection, schedule: Q01DX005 (ip), vehicle: saline 97 % of control | dose: 200.0 mg/kg/injection, schedule: Q01DX005 (ip), vehicle: saline 97 % of control

CCC(CO)NC1CCCCC1 (centres undefined)
inactive: dose: 75.0 mg/kg/injection, schedule: Q01DX001 (ip), vehicle: carboxymethylcellulose (CMC) 88 % of control

NC1=NC(Cc2ccccc2)N(c2ccc(Cl)cc2)C(N)=N1 (centres undefined)
inactive: dose: 14.0 mg/kg/injection, schedule: Q01DX009 (ip), vehicle: steriod suspending solution 98 % of control | dose: 24.0 mg/kg/injection, schedule: Q01DX009 (ip), vehicle: steriod suspending solution 98 % of control | dose: 39.0 mg/kg/injection, schedule: Q01DX009 (ip), vehicle: steriod suspending solution 98 % of control | dose: 65.0 mg/kg/injection, schedule: Q01DX009 (ip), vehicle: steriod suspending solution 96 % of control

NC(=S)N/N=C/C(=O)O
inactive: [12] 91 % of control | [13] 89 % of control | [14] 89 % of control

CCc1nccc(=O)[nH]1
inactive: dose: 50.0 mg/kg/injection, schedule: Q01DX009 (ip), vehicle: saline 102 % of control and 101 % of control | dose: 100.0 mg/kg/injection, schedule: Q01DX009 (ip), vehicle: saline 88 % of control and 110 % of control | [19] 94 % of control and 110 % of control | dose: 200.0 mg/kg/injection, schedule: Q01DX009 (ip), vehicle: saline 100 % of control and 103 % of control | dose: 200.0 mg/kg/injection, schedule: Q04DX003 (ip), vehicle: saline 89 % of control and 104 % of control

CCOC(=O)C(CC)C(O)c1cccc(OC)c1 (centres undefined)
inactive: [10] 94 % of control | [4] 94 % of control | [6] 94 % of control

CC1=NN(c2ccccc2)C(=O)C1N=Nc1ccc(S(N)(=O)=O)cc1 (centres undefined)
inactive: dose: 100.0 mg/kg/injection, schedule: Q01DX001 (ip), vehicle: carboxymethylcellulose (CMC) 95 % of control | dose: 200.0 mg/kg/injection, schedule: Q01DX001 (ip), vehicle: carboxymethylcellulose (CMC) 93 % of control | dose: 400.0 mg/kg/injection, schedule: Q01DX001 (ip), vehicle: carboxymethylcellulose (CMC) 93 % of control

O=C(SC(=S)NCCNC(=S)SC(=O)c1ccccc1)c1ccccc1
inactive: dose: 50.0 mg/kg/injection, schedule: Q04DX002 (ip), vehicle: saline with Tween-80 95 % of control | [15] 87 % of control | [16] 98 % of control

OCCNc1ncnc2ccccc12
inactive: [5] 98 % of control | [7] 104 % of control | [9] 104 % of control

From PubChem BioAssay AID248 (DTP/NCI, 2004)
